Reference: article PMC13478508 (Research, 2026)
No end group written: not given here.

Experiments:
[1] = test system: hsKir6.2+maSUR1 KATP channel; assay: Whole-cell patch clamp of KATP channel currents in transfected FreeStyle 293-F cells; type: cell-based, Homo sapiens (Kir6.2) / Mesocricetus auratus (SUR1); conditions: 1 μM toxin; whole-cell patch clamp at −40 mV; 5 mM BaCl2 baseline; result in words (Fig. 1A, 3H, 5B)
Protocol: KATP constructs were transfected into FreeStyle 293-F cells using polyethylenimine at a cell density of 1 × 10^6 cells/ml. Cells were cultured in FreeStyle 293 Expression Medium with 1% fetal bovine serum for 24 h before recording. Currents were recorded using whole-cell mode at −40 mV in the pipette and an Axon-patch 200B amplifier (Axon Instruments, USA). Patch electrodes were pulled by a horizontal microelectrode puller (P-1000, Sutter Instrument Co, USA) to tip resistance of 2.0 to 3.0 MΩ. Pipette solution containing 107 mM KCl, 1.2 mM MgCl2, 1 mM CaCl2, 10 mM EGTA, 5 mM Hepes (pH 7.2, KOH), and bath solution containing 40 mM KCl, 100 mM NaCl, 2.6 mM CaCl2, 1.2 mM MgCl2, and 5 mM Hepes (pH 7.4, NaOH) were used for measuring inhibitory effect of wild-type and mutant toxins. Application of 5 mM BaCl2 in bath solution was used to block the KATP currents to determine the baseline. Data analysis was carried out using GraphPad Prism 8.0 or 10.4.0.

[2] = biological target: the molecule itself; assay: cryo-EM structure

Molecule	Inhibition of whole-cell KATP current [1]	stoichiometry N [2]
Sm3a: toxin from the centipede Scolopendra morsitans (P0DQC2.1), recombinantly expressed; novel KATP channel blocker (AKKEIPYKRQKFPKKSQCIEACANALTNGDKSKITDVKSRFYKCICYYNP; also: two disulfide bonds, pairing not given here for this toxin)	strongly blocks currents	
human Kir6.2 (Q52E) subunit of the cleaved KATP fusion protein (natural protein, also called hsKir6.2; hsKir6.2 (Q52E)) GPLSRKGIIPEEYVLTRLAEDPAKPRYRARQRRARFVSKKGNCNVAHKNIREEGRFLQDVFTTLVDLKWPHTLLIFTMSFLCSWLLFAMAWWLIAFAHGDLAPSEGTAEPCVTSIHSFSSAFLFSIEVQVTIGFGGRMVTEECPLAILILIVQNIVGLMINAIMLGCIFMKTAQAHRRAETLIFSKHAVIALRHGRLCFMLRVGDLRKSMIISATIHMQVVRKTTSPEGEVVPLHQVDIPMENGVGGNSIFLVAPLIIYHVIDANSPLYDLAPSDLHHHQDLEIIVILEGVVETTGITTQARTSYLADEILWGQRFVPIVAEEDGRYSVDYSKFGNTVKVPTPLCTARQLDEDHSLLEALTLASARGPLRKRSVPMAKAKPKFSISPDSLS		4
